System: mice
Assay: Luc expression (bioluminescence, total flux) after intravenous administration to mice
Format: in vivo
Conditions: for 6 h Lipid/MC3 G.M. Luc Expression / AUC (h*p/s): i.v. administration; for 6 h Lipid/MC3 G.M. Luc Expression: geometric mean; for AUC (h*p/s): total Luc flux (Table 3C); for AUC (p/s*h): Luc total flux (Table 3D)
Experimental: In order to monitor how effectively various nanoparticle compositions deliver therapeutic and/or prophylactics to targeted cells, different nanoparticle compositions including a particular therapeutic and/or prophylactic (for example, a modified or naturally occurring RNA such as an mRNA) are prepared and administered to rodent populations. Mice are intravenously, intramuscularly, intraarterially, or intratumorally administered a single dose including a nanoparticle composition with a formulation such as those provided in Example 3. In some instances, mice may be made to inhale doses. Dose sizes may range from 0.001 mg/kg to 10 mg/kg, where 10 mg/kg describes a dose including 10 mg of a therapeutic and/or prophylactic in a nanoparticle composition for each 1 kg of body mass of the mouse. A control composition including PBS may also be employed.
Upon administration of nanoparticle compositions to mice, dose delivery profiles, dose responses, and toxicity of particular formulations and doses thereof can be measured by enzyme-linked immunosorbent assays (ELISA), bioluminescent imaging, or other methods. For nanoparticle compositions including mRNA, time courses of protein expression can also be evaluated. Samples collected from the rodents for evaluation may include blood, sera, and tissue (for example, muscle tissue from the site of an intramuscular injection and internal tissue); sample collection may involve sacrifice of the animals.
The efficacy of the nanoparticle compositions presented in Table 1A was evaluated with a bioluminescence study. Formulations were administered intravenously to mice (n=6) at a dosage of 0.5 mg/kg (mpk) and bioluminescence measured at 3, 6, and 24 hour time points. The standard MC3 formulation and, in some instances, a control (e.g., a PBS control) were evaluated for comparison. […] In general, flux decreased as time progressed to less than 10% of the initial flux.
The total flux (measured by area under the curve, AUC) induced by administration of a formulation including a given lipid relative to that induced by administration of a formulation including MC3 was also measured for several lipids.
The tolerability and efficacy of nanoparticle compositions to non-human primates was also investigated using sample formulations including Compounds 18, 25, 26, and 48 and MC3 to determine if these compounds are differentiated in terms of protein expression. The formulations were prepared according to the standard MC3 formulation described above and included an hEPO mRNA. Table 30 includes details of the compositions tested, while Table 31 summarizes the relative expression of Luc and hEPO mRNA in mice and rats. Expression was measured 6 hours after administration.

Compound | 6 h Lipid/MC3 G.M. Luc Expression | AUC (h*p/s) | AUC (p/s*h)
CCCCCCCCCOC(=O)CCCCCCCN(CCCCCCCC(=O)OC(CCCCCCCC)CCCCCCCC)CCN1CCN(C)CC1 [Compound 101, Heptadecan-9-yl 8-((2-(4-methylpiperazin-1-yl)ethyl)(8-(nonyloxy)-8-oxooctyl)amino)octanoate] | 0.011 | 1.8E+09 | –
CCCCCCCCCOC(=O)CCCCCCCN(CCCCCCCC(=O)OC(CCCCCCCC)CCCCCCCC)CCN1CCOCC1 [Compound 103, Heptadecan-9-yl 8-((2-morpholinoethyl)(8-(nonyloxy)-8-oxooctyl)amino)octanoate] | 0.171 | 2.4E+10 | –
CCCCCCCCCOC(=O)CCCCCCCN(CCO)CCCCCCCOP(=O)(OCCCCCCCC)OCCCCCCCC [Compound 131, Nonyl 8-((7-((bis(octyloxy)phosphoryl)oxy)heptyl)(2-hydroxyethyl)amino)octanoate] | 1.27 | 9.29E+10 | –
CCCCCCCCOP(=O)(OCCCCCCCC)OCCCCCCCN(CCO)CCCCCCCC(=O)OC(C)CCCCCCCC (centres unmarked) [Compound 132, Decan-2-yl 8-((7-((bis(octyloxy)phosphoryl)oxy)heptyl)(2-hydroxyethyl)amino)octanoate] | 0.112 | 1.75E+10 | –
CCCCCCCCC(CCCCCC)C(=O)OCCCCCCCCCN(CCO)CCCCCCCCCOC(=O)C(CCCCCC)CCCCCCCC (centres unmarked) [Compound 133, ((2-Hydroxyethyl)azanediyl)bis(nonane-9,1-diyl)bis(2-hexyldecanoate)] | 4.18 | 3.62E+11 | –
CCCCCCCCCOC(=O)CCCCCCCN(CCO)CCCCCCCCCOC(=O)C(CCCCCC)CCCCCCCC (centres unmarked) [Compound 134, 9-((2-Hydroxyethyl)(8-(nonyloxy)-8-oxooctyl)amino)nonyl 2-hexyldecanoate] | 3.27 | 3.43E+11 | –
CCCCCCCCC(C)OC(=O)CCCCCCCN(CCO)CCCCCCCOC(=O)C(CCCCCCCC)CCCCCCCC (centres unmarked) [Compound 135, 7-((8-(Decan-2-yloxy)-8-oxooctyl)(2-hydroxyethyl)amino)heptyl 2-octyldecanoate] | 10.5 | 1.25E+12 | –
CCCCCCCCC(CCCCCCCC)OC(=O)CCCCCCCN(CCO)CCCCCCCC(=O)N(C)CCCCCCCC [Compound 145, Heptadecan-9-yl 8-((2-hydroxyethyl)(8-(methyl(octyl)amino)-8-oxooctyl)amino)octanoate] | 0.979 | 8.1E+10 | –
CCCCCCCCC(CCCCCCCC)OC(=O)CCCCCCCN(CCO)CCCCCC(=O)N(C)CCCCCCCC [Compound 146, Heptadecan-9-yl 8-((2-hydroxyethyl)(6-(methyl(octyl)amino)-6-oxohexyl)amino)octanoate] | 0.012 | 1.04E+09 | –
CCCCCCCCCOC(=O)CCCCCCCN(CCO)CCCCCCCCCC(=O)OC(CCCCCC)CCCCCC [Compound 147, Tridecan-7-yl 10-((2-hydroxyethyl)(8-(nonyloxy)-8-oxooctyl)amino)decanoate] | 8.13 | 5.63E+11 | –
CCCCCCCCC(CCCCCCCC)OC(=O)CCCCCCCN(CCO)CCCCCCCC(=O)OCC(CCCCCCC)OC (centres unmarked) [Compound 148, Heptadecan-9-yl 8-((2-hydroxyethyl)(8-((2-methoxynonyl)oxy)-8-oxooctyl)amino)octanoate] | – | – | 4.965E+011
CCCCCCCCC(CCCCCCCC)OC(=O)CCCCCCCN(C)CCCCCCCCCC(=O)OCCCCCCC [Compound 149, Heptyl 10-((8-(heptadecan-9-yloxy)-8-oxooctyl)(methyl)amino)decanoate] | – | – | 1.057E+011
CCCCCCCCC(CCCCCCCC)OC(=O)CCCCCCCN(C)CCCCCCCCCCCC(=O)OCCCCC [Compound 150, Pentyl 12-((8-(heptadecan-9-yloxy)-8-oxooctyl)(methyl)amino)dodecanoate] | – | – | 2.704E+011

— patent US12404232B2, “Compounds and compositions for intracellular delivery of therapeutic agents” (ModernaTX, Inc., priority 2015, dated 2025)
